Experimental data taken from PMC11079029, “Intramolecular autoinhibition regulates the selectivity of PRPF40A tandem WW domains for proline-rich motifs” (Nature Communications, 2024).
Read-outs that look alike come from different tables or passages of the source. No end group written: not given here.

Molecular target: T1, PRPF40A WW12 (tandem WW domains, residues 141–236) (Homo sapiens, UniProt O75400)
T1 construct: WW12 141–236, WW12long 141–248, and N-ext-WW12 56–236; 6xHis-TEV site (N, cleaved yes); made in house; host or cells: Escherichia coli BL21(DE3)
Assay: ITC of PRPF40A WW12 with GB1-tagged proline-rich peptides and constructs
Format: binding
Conditions: for N (sites): ITC as E1, peptide in the cell, N >1 = more than one WW tandem per peptide; for DH: ITC binding enthalpy; for Kd: ITC
Text: PRPF40A isoform 1 sequences (N-ter 1–310, WW12short 141–223, WW12 141–236, WW12long 141–248, and N-ext-WW12 56–236) were amplified from a purchased DNA fragment (IDT) and cloned using NcoI and KpnI restriction sites into a pETM11 vector encoding 6xHis and TEV cleavage site as a N-terminal tag. SF1 (Pro A 410–468, Pro B 468–539, Pro C 539–594, Pro D 594–639, Pro BC 468–594, Pro CD 539–639, Pro BCD 468–639 and Pro ABCD 410–639) and SF3A1 (Middle Pro 364–413 and C-ter Pro 552–683) constructs were prepared in a similar manner using a pET24 vector with a 6xHis, GB1 and TEV cleavage site as N-terminal fusion cassette. 16-mer SF1 constructs (Table 1) and polyproline peptides (P6, P8, P10, P13, P16, P19, P22, P25, and P29) were cloned in the same pET24 vector with GB1 tag by direct ligation of purchased oligonucleotides (Eurofins). All peptide sequences contained N and C-terminal common residues to avoid boundary effects on binding: TEVsite-GAMSGS-peptide-SGSN. Mutants of PRPF40A WW12 and N-ext-WW12 constructs were prepared by site-directed mutagenesis. The truncated version of PRPF40A WW12 (141-217) was a gift from Dr. María Macías (IRB, Spain). All used oligonucleotides were purchased from Eurofins Genomics and are shown in Supplementary Table 6.
Resuspended cell pellets in 20 mM Tris pH 8.0, 500 mM NaCl, 10 mM imidazole, 0.5 mM TCEP, and protease inhibitors mix (SERVA) were lysed by cell disruption in a French press. Clear lysates, after centrifugation (at 18,000 g) and filtering, were loaded into Ni-NTA resin. The resin was then washed with 20 mM imidazole containing buffer, and the desired protein was eluted with 500 mM imidazole. PRPF40A constructs were then subjected to TEV protease treatment (homemade at a final concentration of ≈50 μg/ml), dialyzed overnight at 4 °C against an imidazole-free buffer, and then loaded again to Ni-NTA resin; desired digested proteins were obtained in the flow-through and wash fractions while uncleaved protein, TEV protease, and impurities remained bound to the resin. Cleaved PRPF40A proteins and GB1-tagged SF1, SF3A1, and polyproline constructs were further purified by size-exclusion chromatography on a HiLoad 16/60 Superdex 75 column (GE Healthcare) equilibrated with 20 mM sodium phosphate, pH 6.5, 100 mM NaCl and 1 mM DTT buffer. For the purification of PRPF40A WW12 in complex with SF1 peptide, cell pellets of recombinant expression for both proteins were mixed and processed together following the Ni-NTA—TEV digestion—reverse Ni-NTA—SEC-75 protocol; where the complex remained bound in a 1:1 stoichiometry throughout the whole purification (corroborated by NMR). Molecular weight of each sample was confirmed by mass spectrometry, purity was checked by PAGE-SDS, and protein concentrations were determined from the aromatic contribution to the UV absorbance spectra at 280 nm.
Experiments were conducted on a MicroCAl PEAQ-ITC (Malvern Instruments, UK) at 25 °C in 20 mM sodium phosphate pH 6.5 and 100 mM NaCl. PRPF40A was titrated into N-terminal GB1 tagged SF1 or polyproline constructs and vice versa with similar results. Protein concentrations in the cell were around 20–40 μM, while in the syringe ranged between 200 and 500 μM. Experiments were performed at least in duplicate with injections of 1.5 μL (0.4 μL for first point) separated by 150 s delays to recover thermal power baseline and continuous stirring in the cell (750 rpm) for correct mixing. The reference cell was filled with water in all experiments. Data were processed by removing the blank experiment (using digested GB1 fusion protein) and adjusted to one-site binding model with Malvern PEAQ-ITC Analysis software (Malvern Instruments, UK).

[1] = 25 °C, 20 mM sodium phosphate pH 6.5, 100 mM NaCl, GB1-tagged polyproline or SF1 16-mer peptide in the cell, WW tandem in the syringe, one-site model, apparent Kd, average of at least duplicates, read-out: Kd
[2] = SF1 peptides, individual value 1 (replicate 1), read-out: Kd Values with WW12, individual value
[3] = SF1 peptides, individual value 2 (replicate 2), read-out: Kd Values with WW12, individual value
[4] = SF1 peptides, individual value 3 (replicate 3), read-out: Kd Values with WW12, individual value

T1 sequence (O75400 141-236): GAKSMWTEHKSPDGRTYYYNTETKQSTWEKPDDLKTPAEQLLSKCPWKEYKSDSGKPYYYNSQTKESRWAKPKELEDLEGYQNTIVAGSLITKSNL

Substance | N (sites) (WW tandem in the syringe) | DH (as E1) | also measured
MPPFGMPPAPPPPPPQ [SF1_623–638, GB1-tagged 16-mer from the SF1 C-terminal region] | 0.95 ± 0.10 sites | -10.7 ± 3.54 kcal/mol | Kd [1]: 23.3 ± 13.3 µM; Kd [2]: 21.8 µM; Kd [3]: 24.8 µM
MPPPPPPPSGQPPPPP [SF1_478–493, GB1-tagged 16-mer from the SF1 C-terminal region] | 0.80 ± 0.11 sites | -14.3 ± 0.956 kcal/mol | Kd [1]: 9.59 ± 0.9 µM; Kd [2]: 8.26 µM; Kd [3]: 10.3 µM; Kd [4]: 10.2 µM
MQPPPPPMNQGPHPPG [SF1_425–440, GB1-tagged 16-mer from the SF1 C-terminal region] | 0.87 ± 0.07 sites | -13.3 ± 1.41 kcal/mol | Kd [1]: 20.2 ± 3.1 µM; Kd [2]: 15.9 µM; Kd [3]: 21.8 µM; Kd [4]: 22.9 µM
MYAPPPPPPPPMDPSN [SF1_596–611, GB1-tagged 16-mer from the SF1 C-terminal region] | 1.10 ± 0.30 sites | -10.9 ± 8.8 kcal/mol | Kd [1]: 65.9 ± 50.7 µM
P10: recombinant GB1-tagged polyproline peptide, 10 prolines (GB1-GAMSGSPPPPPPPPPPSGSN; not fully specified) | 0.89 ± 0.11 sites | -9.63 ± 1.24 kcal/mol | 
P13: recombinant GB1-tagged polyproline peptide, 13 prolines (GB1-GAMSGSPPPPPPPPPPPPPSGSN; not fully specified) | 0.78 ± 0.07 sites | -15.7 ± 1.54 kcal/mol | 
P16: recombinant GB1-tagged polyproline peptide, 16 consecutive proline residues (GB1-GAMSGSPPPPPPPPPPPPPPPPSGSN; also: His6 tag state not given here) | 0.88 ± 0.08 sites | -15.2 ± 0.621 kcal/mol | 
P19: recombinant GB1-tagged polyproline peptide, 19 prolines (GB1-GAMSGSPPPPPPPPPPPPPPPPPPPSGSN; also: His6 tag state not given here) | 1.10 ± 0.04 sites | -18.2 ± 0.837 kcal/mol | 
P22: recombinant GB1-tagged polyproline peptide, 22 prolines (GB1-GAMSGSPPPPPPPPPPPPPPPPPPPPPPSGSN; also: His6 tag state not given here) | 1.39 ± 0.03 sites | -18.6 ± 0.574 kcal/mol | 
P25: recombinant GB1-tagged polyproline peptide, 25 prolines (GB1-GAMSGSPPPPPPPPPPPPPPPPPPPPPPPPPSGSN; also: His6 tag state not given here) | 2.30 ± 0.09 sites | -16.6 ± 0.645 kcal/mol | 
P29: recombinant GB1-tagged polyproline peptide, 29 prolines (GB1-GAMSGSPPPPPPPPPPPPPPPPPPPPPPPPPPPPPSGSN; also: His6 tag state not given here) | 2.47 ± 0.09 sites | -15.8 ± 0.502 kcal/mol | 
SF1 Pro A: GB1-tagged SF1 construct, residues 410–468 (GB1-GHPMQHNPNGPPPPWMQPPPPPMNQGPHPPGHHGPPPMDQYLGSTPVGSGVYRLHQGKG; also: His6 tag state not given here) |  |  | DH (as E4): -15.1 ± 3.54 kcal/mol
SF1 Pro C: GB1-tagged SF1 construct, residues 539–594, contains the WWbs 16-mer (GB1-GSIPPWQQQQAAAAASPGAPQMQGNPTMVPLPPGVQPPLPPGAPPPPPPPPPGSAG; also: His6 tag state not given here) |  |  | DH (as E4): -20.6 ± 0.22 kcal/mol
SF1 Pro D: GB1-tagged SF1 construct, residues 594–639 (GB1-GMMYAPPPPPPPPMDPSNFVTMMGMGVAGMPPFGMPPAPPPPPPQN; also: His6 tag state not given here) |  |  | DH (as E4): -16 ± 4.52 kcal/mol
SF3A1 Middle Pro: GB1-tagged SF3A1 construct, residues 364–413, contains a PPLP motif (GB1-EGQKVPPPPETPMPPPLPPTPDQVIVRKDYDPKASKPLPPAPAPDEYLVS; also: His6 tag state not given here) |  |  | DH (as E4): -27.25 ± 6.48 kcal/mol
TMVPLPPGVQPPLPPG [SF1_565–580, GB1-tagged 16-mer from the SF1 C-terminal region] | 1.06 ± 0.11 sites | -13.5 ± 1.96 kcal/mol | Kd [2]: 24 µM; Kd [3]: 37.8 µM; Kd [4]: 23.4 µM; Kd (SF1 peptides, individual value 4 (replicate 4), read-out: Kd Values with WW12, individual value): 36.5 µM
